Data reported in patent US20250313563A1, “GLYCOGEN SYNTHASE KINASE 3 INHIBITORS AND USES THEREOF” (The Broad Institute, Inc., priority 2022, published 2025).
Like-named read-outs stand apart in the source and are kept apart here.

How the values were obtained:
[1] = biological target: GSK3b (GST-full length GSK3b) (Homo sapiens (Human), UniProt P49841); experiment: GSK3b TR-FRET kinase assay; type: biochemical
Method in brief: (§1)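 Readout: anti-pSer641 Tb antibody/streptavidin-d2 signal after 60 min, expressed as 665/615 ratio and fitted versus log concentration for IC50. Enzyme: 1 nM GST-GSK3 (α or β), compound-preincubated 30 min. Conditions: pH 7.5 Tris buffer with MgCl2, DTT, BSA; ATP at 4 or 2 μM, or 1 mM; 100 min.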

[2] = biological target: GSK3α (GST-full length GSK3α) (Homo sapiens (Human), UniProt P49840); experiment: GSK3α TR-FRET kinase assay; type: biochemical
Method in brief: as §1

[3] = 1 nM GSK3b, 2 μM ATP, 30 minute preincubation, Table 16, read-out: GSK3-B TR-FRET BIOCHEMICAL (TR-FRET)
[4] = 1 nM GSK3α, 4 μM ATP, 30 minute preincubation, Table 16, read-out: GSK3-A TR-FRET BIOCHEMICAL (TR-FRET)
[5] = read-out: GSK3-B (TR-FRET 1 mM ATP), GMean, IC50, 1 mM ATP, geometric mean
[6] = read-out: GSK3-A (TR-FRET 1 mM ATP), GMean, IC50, 1 mM ATP, geometric mean
[7] = 1 nM GSK3b, 2 μM ATP, 30 minute preincubation, Table 16, read-out: GSK3-B TR-FRET BIOCHEMICAL (TR-FRET), IC50
[8] = 1 nM GSK3α, 4 μM ATP, 30 minute preincubation, Table 16, read-out: GSK3-A TR-FRET BIOCHEMICAL (TR-FRET), IC50
[9] = 1 nM GSK3b, 2 μM ATP, 30 minute preincubation, read-out: GSK3-B TR-FRET BIOCHEMICAL (TR-FRET), IC50
[10] = 1 nM GSK3α, 4 μM ATP, 30 minute preincubation, read-out: GSK3-A TR-FRET BIOCHEMICAL (TR-FRET), IC50
[11] = GSK3-B (TR-FRET 1 mM ATP), GMean, IC50, 1 mM ATP, geometric mean
[12] = GSK3-A (TR-FRET 1 mM ATP), GMean, IC50, 1 mM ATP, geometric mean

Sequence of GSK3α (GST-full length GSK3α) (P49840 whole entry): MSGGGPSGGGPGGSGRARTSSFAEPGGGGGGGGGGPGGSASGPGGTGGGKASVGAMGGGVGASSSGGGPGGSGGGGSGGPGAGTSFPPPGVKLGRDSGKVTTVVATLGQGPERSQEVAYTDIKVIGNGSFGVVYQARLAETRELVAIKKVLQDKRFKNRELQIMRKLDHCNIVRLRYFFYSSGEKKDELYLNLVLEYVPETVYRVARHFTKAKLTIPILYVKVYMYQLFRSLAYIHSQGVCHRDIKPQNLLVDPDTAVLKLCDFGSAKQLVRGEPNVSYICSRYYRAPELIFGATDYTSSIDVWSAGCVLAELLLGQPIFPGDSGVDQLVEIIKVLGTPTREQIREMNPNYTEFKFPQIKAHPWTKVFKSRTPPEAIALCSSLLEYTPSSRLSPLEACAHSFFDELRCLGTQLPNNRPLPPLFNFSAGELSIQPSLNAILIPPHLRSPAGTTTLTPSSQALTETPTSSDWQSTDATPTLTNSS
Sequence of GSK3b (GST-full length GSK3b) (P49841 whole entry): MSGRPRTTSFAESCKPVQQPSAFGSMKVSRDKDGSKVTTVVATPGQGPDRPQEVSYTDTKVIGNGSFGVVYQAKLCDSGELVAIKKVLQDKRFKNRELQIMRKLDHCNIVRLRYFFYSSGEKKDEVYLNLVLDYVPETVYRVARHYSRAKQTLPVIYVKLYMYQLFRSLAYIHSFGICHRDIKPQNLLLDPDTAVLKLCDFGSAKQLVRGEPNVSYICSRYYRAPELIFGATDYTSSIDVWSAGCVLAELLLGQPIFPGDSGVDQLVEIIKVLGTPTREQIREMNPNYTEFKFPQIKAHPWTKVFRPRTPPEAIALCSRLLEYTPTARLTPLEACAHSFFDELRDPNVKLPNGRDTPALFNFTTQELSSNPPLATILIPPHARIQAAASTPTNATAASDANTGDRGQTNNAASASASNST

SMILES | IC50 [1, 3] | IC50 [2, 4] | IC50 [1, 9] | IC50 [2, 10] | other results
CCC1(c2cccc(N(C)c3cc(C)ccn3)c2)C2=C(CC(C)(C)CC2=O)Nc2n[nH]cc21 (centres unmarked) [Compound 943537] | 100 to 1000 nM | ≤ 100 nM |  |  | 
CCC1(c2cccc(-c3ccncc3CO)c2)C2=C(CC(C)(C)CC2=O)Nc2n[nH]cc21 (centres unmarked) [Compound 943539] | ≤ 100 nM | ≤ 100 nM |  |  | 
CCC1(c2cccc(-c3ccnc(CO)c3)c2)C2=C(CC(C)(C)CC2=O)Nc2n[nH]cc21 (centres unmarked) [Compound 943540] | 100 to 1000 nM | ≤ 100 nM |  |  | 
CCC1(c2cccc(S(=O)(=O)C3CCCCC3)c2)C2=C(CC(C)(C)CC2=O)Nc2n[nH]cc21 (centres unmarked) [Compound 943541] | ≤ 100 nM | ≤ 100 nM |  |  | IC50 [1, 5]: 1000 to 5000 nM; IC50 [2, 6]: 100 to 1000 nM
CC1(C)CC(=O)C2=C(C1)Nc1n[nH]cc1C21CN(S(=O)(=O)Cc2ccccc2)C1 [Compound 943543] | ≤ 100 nM | ≤ 100 nM |  |  | 
COCCN1CC2(C1)C1=C(CC(C)(C)CC1=O)Nc1n[nH]cc12 [Compound 943544] |  |  |  |  | IC50 [1, 7]: > 5000 nM; IC50 [2, 8]: > 5000 nM
CC1(C)CC(=O)C2=C(C1)Nc1n[nH]cc1C21CN(CC2CCOCC2)C1 [Compound 943545] |  |  |  |  | IC50 [1, 7]: > 5000 nM; IC50 [2, 8]: > 5000 nM
CC[C@]1(c2cccc(S(=O)(=O)CCOC)c2)C2=C(CC(C)(C)CC2=O)Nc2n[nH]cc21 [Compound 943546] | > 5000 nM | 1000 to 5000 nM |  |  | 
CCC1(c2cccc(S(=O)(=O)C3CCCCC3)c2)C2=C(CC(C)(C)CC2=O)Nc2n[nH]cc21 (centres unmarked) [Compound 943547] | > 5000 nM | 1000 to 5000 nM |  |  | 
CC1(C)CC(=O)C2=C(C1)Nc1n[nH]cc1C21CCC(n2cnnc2)CC1 (centres unmarked) [Compound 943894] | 100 to 1000 nM | ≤ 100 nM |  |  | 
Cc1noc(C2CCC3(CC2)C2=C(CC(C)(C)CC2=O)Nc2n[nH]cc23)n1 (centres unmarked) [Compound 943895] | 100 to 1000 nM | 100 to 1000 nM |  |  | 
C[C@H]1C[C@@H]2C[C@]3(C[C@@H]2C1)C1=C(CC(C)(C)CC1=O)Nc1n[nH]cc13 [Compound 943896] |  |  | ≤ 100 nM | ≤ 100 nM | 
C[C@@H]1C[C@@H]2C[C@]3(C[C@@H]2C1)C1=C(CC(C)(C)CC1=O)Nc1n[nH]cc13 [Compound 943898] |  |  | ≤ 100 nM | ≤ 100 nM | 
CCC1(c2cccc(-c3cnn(C)c3)c2)C2=C(CC(C)(C)NC2=O)Nc2n[nH]cc21 (centres unmarked) [Compound 943912] |  |  | 1000 to 5000 nM | ≤ 100 nM | 
CC[C@]1(c2cccc(-c3ccncc3C(F)(F)F)c2)C2=C(CC(C)(C)CC2=O)Nc2n[nH]cc21 [Compound 943913] | ≤ 100 nM | ≤ 100 nM |  |  | IC50 [1, 5]: 100 to 1000 nM; IC50 [2, 6]: ≤ 100 nM
CC1(C)CC(=O)C2=C(C1)Nc1n[nH]cc1C21CN(CC2CCCC2)C1 [Compound 943914] |  |  |  |  | IC50 [1, 7]: > 5000 nM; IC50 [2, 8]: > 5000 nM
CC[C@]1(c2cccc(-c3ccnc(C(F)F)c3)c2)C2=C(CC(C)(C)CC2=O)Nc2n[nH]cc21 [Compound 943919] | 100 to 1000 nM | ≤ 100 nM |  |  | 
CC1(C)CC(=O)C2=C(C1)Nc1n[nH]cc1[C@@]21COC2(CN(C(=O)c3ccccc3)C2)C1 [Compound 943955] |  |  | ≤ 100 nM | ≤ 100 nM | 
CC1(C)CC(=O)C2=C(C1)Nc1n[nH]cc1C21COC2(CN(C(=O)c3ccccc3)C2)C1 (centres unmarked) [Compound 943956] |  |  | 1000 to 5000 nM | 100 to 1000 nM | 
CC1(C)CC(=O)C2=C(C1)Nc1n[nH]cc1C21COC2(CN(C(=O)C3CCCC3)C2)C1 (centres unmarked) [Compound 943958] |  |  | 1000 to 5000 nM | 100 to 1000 nM | 
CC1(C)CC2=C(C(=O)N1)C1(CCN(S(C)(=O)=O)CC1)c1c[nH]nc1N2 [Compound 943959] |  |  | 100 to 1000 nM | ≤ 100 nM | 
CC1(C)CC2=C(C(=O)N1)C1(CCN(S(=O)(=O)C3CCCC3)CC1)c1c[nH]nc1N2 [Compound 943960] |  |  | ≤ 100 nM | ≤ 100 nM | IC50 [1, 11]: 100 to 1000 nM; IC50 [2, 12]: 100 to 1000 nM
Cn1ccc(S(=O)(=O)N2CCC3(CC2)C2=C(CC(C)(C)NC2=O)Nc2n[nH]cc23)n1 [Compound 943961] | ≤ 100 nM | ≤ 100 nM | ≤ 100 nM | ≤ 100 nM | IC50 [1, 11]: > 5000 nM; IC50 [2, 12]: 100 to 1000 nM
COc1cccc(S(=O)(=O)N2CCC3(CC2)C2=C(CC(C)(C)CC2=O)Nc2n[nH]cc23)c1 [Compound 943962] | 100 to 1000 nM | ≤ 100 nM | 100 to 1000 nM | ≤ 100 nM | 
CC1(C)CC2=C(C(=O)N1)C1(CCN(S(=O)(=O)c3ccc(F)cc3)CC1)c1c[nH]nc1N2 [Compound 943963] |  |  | ≤ 100 nM | ≤ 100 nM | 

SMILES | IC50 [1, 3] | IC50 [2, 4] | IC50 [1, 9] | IC50 [2, 10] | other results
CC[C@@]1(c2cccc(N(C)c3ncccn3)c2)C2=C(CC(C)(C)NC2=O)Nc2n[nH]cc21 [Compound 943964] |  |  | ≤ 100 nM | ≤ 100 nM | IC50 [1, 5]: 1000 to 5000 nM; IC50 [2, 6]: 100 to 1000 nM
CC[C@]1(c2cccc(N(C)c3ncccn3)c2)C2=C(CC(C)(C)NC2=O)Nc2[nH]ncc21 [Compound 943965] |  |  | > 5000 nM | 100 to 1000 nM | 
CCC1(c2cccc(-c3cc(C)nn3C)c2)C2=C(CC(C)(C)NC2=O)Nc2n[nH]cc21 (centres unmarked) [Compound 943966] |  |  | 100 to 1000 nM | ≤ 100 nM | 
CC[C@]1(c2cccc(-c3cc(C)nn3C)c2)C2=C(CC(C)(C)NC2=O)Nc2n[nH]cc21 [Compound 943967] |  |  | > 5000 nM | > 5000 nM | 
CCC1(c2cccc(-c3ccnc(OC(F)(F)F)c3)c2)C2=C(CC(C)(C)CC2=O)Nc2n[nH]cc21 (centres unmarked) [Compound 943988] | 1000 to 5000 nM | 100 to 1000 nM |  |  | 
CCC1(c2cccc(-c3ccncc3C)c2)C2=C(CC(C)(C)CC2=O)Nc2n[nH]cc21 (centres unmarked) [Compound 943990] | ≤ 100 nM | ≤ 100 nM |  |  | IC50 [1, 5]: 100 to 1000 nM; IC50 [2, 6]: ≤ 100 nM
CCC1(c2cccc(-c3ccnc(O)c3)c2)C2=C(CC(C)(C)CC2=O)Nc2n[nH]cc21 (centres unmarked) [Compound 943992] | 100 to 1000 nM | ≤ 100 nM |  |  | 
CCC1(c2cccc(-c3cnnc(C)c3)c2)C2=C(CC(C)(C)CC2=O)Nc2n[nH]cc21 (centres unmarked) [Compound 943994] | ≤ 100 nM | ≤ 100 nM |  |  | IC50 [1, 5]: 1000 to 5000 nM; IC50 [2, 6]: 100 to 1000 nM
CCC1(c2cccc(-c3c(C)nnn3C)c2)C2=C(CC(C)(C)CC2=O)Nc2n[nH]cc21 (centres unmarked) [Compound 943996] | ≤ 100 nM | ≤ 100 nM |  |  | IC50 [1, 5]: 100 to 1000 nM; IC50 [2, 6]: ≤ 100 nM
CCC1(c2cccc(S(=O)(=O)C3COC3)c2)C2=C(CC(C)(C)CC2=O)Nc2n[nH]cc21 (centres unmarked) [Compound 944017] | ≤ 100 nM | ≤ 100 nM |  |  | 
CCC1(c2cccc(S(=O)(=O)C3CCOC3)c2)C2=C(CC(C)(C)CC2=O)Nc2n[nH]cc21 (centres unmarked) [Compound 944018] | ≤ 100 nM | ≤ 100 nM |  |  | 
CCC1(c2cccc(S(=O)(=O)C3CC(F)(F)C3)c2)C2=C(CC(C)(C)CC2=O)Nc2n[nH]cc21 (centres unmarked) [Compound 944019] | ≤ 100 nM | ≤ 100 nM |  |  | 
CCC1(c2cccc(-c3cn[nH]c3)c2)C2=C(CC(C)(C)NC2=O)Nc2n[nH]cc21 (centres unmarked) [Compound 944022] |  |  | 100 to 1000 nM | ≤ 100 nM | 
CCc1cccc(N(C)c2cccc(C3(CC)C4=C(CC(C)(C)CC4=O)Nc4n[nH]cc43)c2)n1 (centres unmarked) [Compound 944023] | 100 to 1000 nM | ≤ 100 nM |  |  | 
CCC1(c2cccc(-c3cnco3)c2)C2=C(CC(C)(C)CC2=O)Nc2n[nH]cc21 (centres unmarked) [Compound 944025] | 100 to 1000 nM | ≤ 100 nM |  |  | 
CCC1(c2cccc(-c3cncn3C(C)C)c2)C2=C(CC(C)(C)CC2=O)Nc2n[nH]cc21 (centres unmarked) [Compound 944026] | ≤ 100 nM | ≤ 100 nM |  |  | 
CCC1(c2cccc(-c3cnn(C)c3C)c2)C2=C(CC(C)(C)NC2=O)Nc2n[nH]c(C)c21 (centres unmarked) [Compound 944028] |  |  | 100 to 1000 nM | ≤ 100 nM | 
CCC1(c2cccc(-c3ccnc(C(C)O)c3)c2)C2=C(CC(C)(C)CC2=O)Nc2n[nH]cc21 (centres unmarked) [Compound 944029] | 100 to 1000 nM | ≤ 100 nM |  |  | 
CCC1(c2cccc(-c3cn(C)nc3C)c2)C2=C(CC(C)(C)NC2=O)Nc2n[nH]cc21 (centres unmarked) [Compound 944030] |  |  | ≤ 100 nM | ≤ 100 nM | 
CC[C@]1(c2cccc(-c3ccnc4ccccc34)c2)C2=C(CC(C)(C)CC2=O)Nc2n[nH]cc21 [Compound 944031] | ≤ 100 nM | ≤ 100 nM |  |  | 
CCC1(c2cccc(-c3cc(OC)ncc3F)c2)C2=C(CC(C)(C)CC2=O)Nc2n[nH]cc21 (centres unmarked) [Compound 944032] | ≤ 100 nM | ≤ 100 nM |  |  | IC50 [1, 5]: 1000 to 5000 nM; IC50 [2, 6]: 100 to 1000 nM
CCC1(c2cccc(-c3ccnc4c3CCCC4)c2)C2=C(CC(C)(C)CC2=O)Nc2n[nH]cc21 (centres unmarked) [Compound 944033] | ≤ 100 nM | ≤ 100 nM |  |  | IC50 [1, 5]: 100 to 1000 nM; IC50 [2, 6]: ≤ 100 nM
CC[C@@]1(c2cccc(-c3cc(OC)ncc3F)c2)C2=C(CC(C)(C)CC2=O)Nc2n[nH]cc21 [Compound 944035] | > 5000 nM | 1000 to 5000 nM |  |  | 
CC[C@@]1(c2cccc(-c3ccnc4c3CCCC4)c2)C2=C(CC(C)(C)CC2=O)Nc2n[nH]cc21 [Compound 944036] | > 5000 nM | 1000 to 5000 nM |  |  | 
